Measured values taken from publication PMC11984407, “A natural small molecule isoginkgetin alleviates hypercholesterolemia and atherosclerosis by targeting ACLY” (Theranostics, 2025).

What was measured:
[1] = tested on: primary hepatocytes from C57BL/6J mouse; experiment: CCK8 cell viability, primary hepatocytes; format: cell-based; details: concentrations below 7.5 μmol/L, 12 h
Method: The cellular viability was assessed by conducting CCK8 assays in primary hepatocytes from C57BL/6J mouse and HepG2 cell line. Specifically, 2,000 cells per well were plated in 96-well plates and cultured with different concentrations of ISOGK for 12 h. Following this, cell absorption was quantified using a CCK8 kit (CA1210, Solarbio, Beijing, China), adhering strictly to the manufacturer's guidelines. The presented data represents the findings from three independent experiments, with each experiment consisting of four replicates.

[2] = tested on: Apoe-/- mice; experiment: High cholesterol diet-induced atherosclerosis in Apoe-/- mice; format: in vivo, mouse
Method: C57BL/6J (N000013, Gempharmatech, Nanjing, Jiangsu, China) and Apoe^-/- (T001458, Gempharmatech, Nanjing, Jiangsu, China) mice were employed. […] Alipoprotein E knockout (Apoe^-/-) mice were subjected to a 1.25% high cholesterol diet (#D12108C, RESEARCH DIETS, New Brunswick, NJ, USA). After 7 weeks of atherosclerosis induction, intraperitoneal injection of ISOGK (20 mg/kg/day) was initiated and continued for additional 8 weeks. Upon reaching the designated experimental endpoint, blood was collected retro-orbitally, and serum was isolated for subsequent biochemical parameter analysis. Subsequently, the aorta and heart tissues were processed. The aorta was subjected to Oil Red O staining (#G1260, SolarBio, Beijing, China) for en face examination, and cryosections of the aortic sinus were prepared for analysis as we previously described. The serum lipid profile was evaluated utilizing colorimetric kits from Leidu Biotech (Shenzhen, China). Liver samples were gathered, processed into a homogenate, and then centrifuged. The resulting transparent supernatant was utilized for assessing hepatic triglyceride (TG) and total cholesterol (TC) concentrations using kits obtained from commercial sources (290-63701 for TG, 294-65801 for TC; Wako, Tokyo, Japan and E-BC-K261-M for TG, E-BC-K109-M for TC; Elabscience, Wuhan, China). The levels of TG and TC were normalized against the weight of the liver tissue. Kits for antioxidant-related indicators, including GSH (S0059S, Beyotime, Shanghai, China), MDA (S0131S, Beyotime, Shanghai, China), SOD (S0101S, Beyotime, Shanghai, China), and ox-LDL (CSB-E07933m, CUSABIO, Beijing, China), were detected in mouse serum. Acly^flox/flox mice were sourced from the Shanghai Model Organisms Center (no. NM-CKO-200076). The Institutional Animal Care and Use Committee of the University of Science and Technology of China (USTC) approved all animal care procedures (approval number USTCACUC27120124102, USTCACUC212401038).
Plasma levels of TC, TG, LDL-C, and high-density lipoprotein cholesterol (HDL-C) were determined following the manufacturer's instructions. Liver tissues (30-40 mg) were homogenized in 0.5 mL of cold PBS for hepatic TG and cholesterol measurement. A 0.4 mL homogenate was combined with 1.4 mL of a CHCl3/CH3OH mixture (2:1, v/v) and shaken overnight at room temperature. Following centrifugation at 2,500 × g for a period of 10 min, the organic phase was meticulously transferred and permitted to air-dry. The residual organic material was then reconstituted in 800 μL of ethanol containing 1% Triton X-100, whereby the ethanol served to solubilize the material.
Fast protein liquid chromatography (FPLC) was employed to analyze plasma lipoproteins using 200 μL of pooled plasma samples. The samples were initially filtered through 0.22-µm filters and subsequently loaded onto Tricorn high-performance Superose S-6 10/300GL columns (Amersham Biosciences). Elution was conducted with PBS at a constant flow rate of 0.25 mL/min. The eluted fractions (500 μL each) were subjected to analysis for TG and TC concentrations using the aforementioned commercial assay kits.
Cytokines, including C-reactive protein (CRP) (RK04303, ABclonal, Guangzhou, China), interleukin-1 beta (IL-1 β) (RK00006, ABclonal, Guangzhou, China), and interleukin-6 (IL-6) (RK00008, ABclonal, Guangzhou, China), were extracted from mouse serum and analyzed using enzyme-linked immunosorbent assay (ELISA) kits. All procedures were conducted in accordance with the instructions provided by the manufacturers.
Tissue slides from the male Apoe^-/- mice aortic sinus was washed with PBS and then permeabilized in a solution of PBS with 0.3% BSA and 0.03% Triton X-100 for 1 h at room temperature. These sections were subsequently incubated overnight with primary antibodies at a 1:400 dilution, followed by a 1-h incubation with Alexa Fluor 488 or 546-conjugated sary antibodies at a 1:2000 dilution, also at room temperature. […]

[3] = 20 mg/kg/day i.p., 8 weeks, male or female Apoe-/- mice
[4] = female Apoe-/- mice, 20 mg/kg/day, 8 weeks
[5] = male Apoe-/- mice, 20 mg/kg/day, 8 weeks

## COc1ccc(-c2cc(=O)c3c(O)cc(O)c(-c4cc(-c5cc(=O)c6c(O)cc(O)cc6o5)ccc4OC)c3o2)cc1 [ISOGK, Isoginkgetin]
[1]
  cytotoxicity (CCK-8): no significant cytotoxicity
[2]; [3]
  body weight vs vehicle: No significant changes in body weight
  serum ALT and AST: no significant changes
[2]; 20 mg/kg/day, 8 weeks, Apoe-/- mice
  liver H&E and Sirius red staining: no substantial pathological alterations
[2]; Apoe-/- mice, 20 mg/kg/day, 8 weeks
  necrotic core area in aortic sinus (H&E): notable reduction in the necrotic core area
[2]; Apoe-/- mice, 8 weeks
  oxidative stress markers in serum (GSH, MDA, SOD, ox-LDL): no significant alterations
[2]; Apoe-/- mice, Western blot
  LDLR and ACLY protein expression in liver tissues: no significant change in either LDLR or ACLY protein expression
[2]; Apoe-/- mice, irrespective of gender
  TG levels in serum and liver tissue: notable decline in TG levels
[2]; female Apoe-/- mice
  serum LDL-C and HDL-C: remained unchanged
[2]; [4]
  decrease in aortic sinus lesion area (ORO) vs vehicle: 45.74%
  decrease in liver tissue TC: 32.34%
  decrease in serum TC: 24.24%
  reduction of en face aortic lesion area (ORO) vs vehicle: 3.88%
[2]; female Apoe-/- mice, pooled plasma
  TG and cholesterol carried in VLDL particles (FPLC): significant reduction
[2]; male Apoe-/- mice
  serum LDL-C: decreased the serum levels of LDL-C
[2]; [5]
  content of macrophages in the aortic sinus (immunofluorescence): substantial decline
  content of smooth muscle cells and endothelial cells in the aortic sinus: remained unaltered
  decrease in aortic sinus lesion area (ORO) vs vehicle: 46.35%
  decrease in liver tissue TC: 29.98%
  decrease in serum TC: 27.15%
[2]; male Apoe-/- mice, qRT-PCR
  expression of cholesterol efflux genes in the liver: no significant differences
[2]; male or female Apoe-/- mice, vehicle vs ISOGK
  serum CRP, IL-1β and IL-6 (ELISA): no statistically significant differences
